# Molecular target: mGluR4 (UniProt Q14833)
# Assay: mGluR4 potentiation assay: increase in response to an EC20 concentration of agonist (species not given)
# Type: cell-based
# Settings: EC50 for potentiation of mGluR4; table does not state human or rat
# Protocol: The disclosed compounds and compositions can be evaluated for their ability to act as a potentiator of metabotropic glutamate receptor activity, in particular mGluR4 activity, by any suitable known methodology known in the art. For example, Chinese Hamster Ovary (CHO) cells transfected with human mGluR4 or […] co-transfected with rat mGluR4 and the G-protein regulated Inwardly Rectifying Potassium channel (GIRK) were plated in clear bottom assay plates for assay in a Hamamatsu FDSS Fluorometric Plate Reader. The cells were loaded with either a Ca2+-sensitive fluorescent dye or the thallium responsive dye and the plates were washed and placed into a suitable kinetic plate reader. For human mGluR4 assays, a fluorescence baseline was established for 3-5 seconds, the disclosed compounds were then added to the cells, and the response in cells was measured. Approximately two and a half minutes later, a concentration of mGluR4 orthosteric agonist (e.g. glutamate or L-AP4) eliciting approximately 20% (EC20) of the maximal agonist response was added to the cells, and the response was measured. Two minutes later, a concentration of mGluR4 agonist (e.g. glutamate or L-AP4) eliciting 80% (EC80) of the maximal agonist response was added to the cells, and the response was measured. For rat mGluR4/GIRK experiments, a baseline was established for approximately five seconds, disclosed compounds were added, and either an EC20 or EC80 concentration of agonist was added approximately two and one half minutes later. Potentiation of the agonist response of mGluR4 by the disclosed compounds was observed as an increase in response to the EC20 concentration of agonist in the presence of compound compared to the response to agonist in the absence of compound. Similarly, antagonism of the agonist response of mGluR4 by the disclosed compounds was observed as a decrease in response to the EC80 concentration of agonist in the presence of compound compared to the response to agonist in the absence of compound.
# The above described assay operated in two modes. In the first mode, a range of concentrations of the disclosed compounds are added to cells, followed by a single fixed concentration of agonist. If the compound acts as a potentiator, an EC50 value for potentiation and a maximum extent of potentiation by the compound at this concentration of agonist is determined by non-linear curve fitting. If the compound acts as a noncompetitive antagonist, an IC50 value is determined by non-linear curve fitting. In the second mode, several fixed concentrations of the disclosed compounds are added to various wells on a plate, followed by a range in concentrations of agonist for each concentration of disclosed compound. The EC50 values for the agonist at each concentration of compound are determined by non-linear curve fitting. A decrease in the EC50 value of the agonist with increasing concentrations of the sample compound (a leftward shift of the agonist concentration-response curve) is an indication of the degree of mGluR4 potentiation at a given concentration of the sample compound. A decrease in the maximal response of the agonist with increasing concentrations of the sample compounds, with or without a rightward shift in agonist potency, is an indication of the degree of noncompetitive antagonism at mGluR4. The second mode also indicates whether the sample compounds also affect the maximum response to mGluR4 to agonists.
# These compounds are positive allosteric modulators (potentiators) of human and rat mGluR4 and were selective for mGluR4 compared to the other seven subtypes of metabotropic glutamate receptors.
row,SMILES,EC50 [nM]
1,"COc1ccc(-c2nn(C)c3cc(Nc4n[nH]c5cccnc45)ccc23)cn1 [Example 180, N-[3-(6-methoxy-3-pyridyl)-1-methyl-indazol-6-yl]-1H-pyrazolo[4,3-b]pyridin-3-amine]",> 10000
2,"COc1cc(Nc2n[nH]c3cccnc23)cc2c1cnn2C [Example 52, N-(4-methoxy-1-methyl-1H-indazol-6-yl)-1H-pyrazolo[4,3-b]pyridin-3-amine]",718
3,"CN1CCN(C(=O)c2nn(C)c3cc(Nc4n[nH]c5cccnc45)ccc23)CC1 [Example 166, (4-methylpiperazin-1-yl)-[1-methyl-6-(1H-pyrazolo[4,3-b]pyridin-3-ylamino)indazol-3-yl]methanone]",> 10000
4,"CC1=NOC(Cn2nc(C)c3cc(Nc4n[nH]c5cccnc45)ccc32)C1 (stereo not drawn) [Example 121, N-(3-methyl-1-((3-methyl-4,5-dihydroisoxazol-5-yl)methyl)-1H-indazol-5-yl)-1H-pyrazolo[4,3-b]pyridin-3-amine]",377
5,"Cn1nc(C2CC2)c2ccc(Nc3n[nH]c4ccc(F)cc34)cc21 [Example 7, N-(3-cyclopropyl-1-methyl-1H-indazol-6-yl)-5-fluoro-1H-indazol-3-amine]",1230
6,"CC(C)n1ncc2cc(Nc3n[nH]c4nccnc34)cc(Cl)c21 [Example 60, N-(7-chloro-1-isopropyl-1H-indazol-5-yl)-1H-pyrazolo[3,4-b]pyrazin-3-amine]",790
7,"c1cnc2c(Nc3cnc4cnn(CC5CCC5)c4c3)n[nH]c2n1 [Example 149, N-(1-(cyclobutylmethyl)-1H-pyrazolo[4,3-b]pyridin-6-yl)-1H-pyrazolo[3,4-b]pyrazin-3-amine]",> 10000
8,"Cn1nc(N2CCOCC2)c2ccc(Nc3n[nH]c4cccnc34)cc21 [Example 35, N-(1-methyl-3-morpholino-1H-indazol-6-yl)-1H-pyrazolo[4,3-b]pyridin-3-amine]",992
9,"Cc1cncc(-c2nn(C)c3cc(Nc4n[nH]c5cccnc45)ccc23)c1 [Example 178, N-(1-methyl-3-(5-methylpyridin-3-yl)-1H-indazol-6-yl)-1H-pyrazolo[4,3-b]pyridin-3-amine]",4180
10,"Cc1cc(Cn2cc3ncc(Nc4n[nH]c5cccnc45)cc3n2)no1 [Example 144, N-(2-((5-methylisoxazol-3-yl)methyl)-2H-pyrazolo[4,3-b]pyridin-6-yl)-1H-pyrazolo[4,3-b]pyridin-3-amine]",> 10000
11,"Cn1nc(C(=O)NC2CCC2)c2ccc(Nc3n[nH]c4cccnc34)cc21 [Example 176, N-cyclobutyl-1-methyl-6-(1H-pyrazolo[4,3-b]pyridin-3-ylamino)indazole-3-carboxamide]",653
12,"Cn1nc(N2CC(C)(C3CC3)CC2=O)c2ccc(Nc3n[nH]c4ccccc34)cc21 (stereo not drawn) [Example 41, 1-(6-((1H-indazol-3-yl)amino)-1-methyl-1H-indazol-3-yl)-4-cyclopropyl-4-methylpyrrolidin-2-one]",1420
13,"c1cnc2c(Nc3ccc4nn(CC5CCC5)cc4c3)n[nH]c2c1 [Example 89, N-(2-(cyclobutylmethyl)-2H-indazol-5-yl)-1H-pyrazolo[4,3-b]pyridin-3-amine]",> 10000
14,"FC1(F)CC(Cn2nc(Cl)c3cc(Nc4n[nH]c5cccnc45)ccc32)C1 [Example 287, N-(3-chloro-1-((3,3-difluorocyclobutyl)methyl)-1H-indazol-5-yl)-1H-pyrazolo[4,3-b]pyridin-3-amine]",2990
15,"CCCCn1nc(Cl)c2cc(Nc3n[nH]c4cccnc34)ccc21 [Example 281, N-(1-butyl-3-chloro-1H-indazol-5-yl)-1H-pyrazolo[4,3-b]pyridin-3-amine]",2430
16,"CCC(C)n1nc(Cl)c2cc(Nc3n[nH]c4cccnc34)ccc21 (stereo not drawn) [Example 286, N-(1-(sec-butyl)-3-chloro-1H-indazol-5-yl)-1H-pyrazolo[4,3-b]pyridin-3-amine]",> 10000
17,"CC(C)COc1nn(C)c2cc(Nc3n[nH]c4cccnc34)ccc12 [Example 244, N-(3-isobutoxy-1-methyl-1H-indazol-6-yl)-1H-pyrazolo[4,3-b]pyridin-3-amine]",231
18,"Cc1cc(Cn2ncc3ncc(Nc4n[nH]c5nccnc45)cc32)no1 [Example 143, N-(1-((5-methylisoxazol-3-yl)methyl)-1H-pyrazolo[4,3-b]pyridin-6-yl)-1H-pyrazolo[3,4-b]pyrazin-3-amine]",> 10000

# Continued, values first:
row,EC50 [nM],SMILES
1,164,"Cn1nc(OCC2CC2)c2ccc(Nc3n[nH]c4cccnc34)cc21 [Example 185, N-(3-(cyclopropylmethoxy)-1-methyl-1H-indazol-6-yl)-1H-pyrazolo[4,3-b]pyridin-3-amine]"
2,198,"Cn1nc(OCC(F)(F)F)c2ccc(Nc3n[nH]c4cccnc34)cc21 [Example 182, N-(1-methyl-3-(2,2,2-trifluoroethoxy)-1H-indazol-6-yl)-1H-pyrazolo[4,3-b]pyridin-3-amine]"
3,144,"Cc1nn(CC2CC(C(C)C)=NO2)c2ccc(Nc3n[nH]c4cccnc34)cc12 (stereo not drawn) [Example 120, N-(1-((3-isopropyl-4,5-dihydroisoxazol-5-yl)methyl)-3-methyl-1H-indazol-5-yl)-1H-pyrazolo[4,3-b]pyridin-3-amine]"
4,47,"Cc1nn(CC2CCC2)c2ccc(Nc3n[nH]c4cccnc34)cc12 [Example 72, N-(1-(cyclobutylmethyl)-3-methyl-1H-indazol-5-yl)-1H-pyrazolo[4,3-b]pyridin-3-amine]"
5,171,"CCCOc1nn(C)c2cc(Nc3n[nH]c4cccnc34)ccc12 [Example 239, N-(1-methyl-3-propoxy-1H-indazol-6-yl)-1H-pyrazolo[4,3-b]pyridin-3-amine]"
6,43,"Cn1nc(C2CC2)c2ccc(Nc3n[nH]c4cccnc34)cc21 [Example 1, N-(3-cyclopropyl-1-methyl-1H-indazol-6-yl)-1H-pyrazolo[4,3-b]pyridin-3-amine]"
7,215,"CC(c1nn(C)c2cc(Nc3n[nH]c4cccnc34)ccc12)C(F)(F)F (stereo not drawn) [Example 46, N-(1-methyl-3-(1,1,1-trifluoropropan-2-yl)-1H-indazol-6-yl)-1H-pyrazolo[4,3-b]pyridin-3-amine]"
8,129,"Cn1nc(C2(C)CC2)c2ccc(Nc3n[nH]c4ncccc34)cc21 [Example 30, N-(1-methyl-3-(1-methylcyclopropyl)-1H-indazol-6-yl)-1H-pyrazolo[3,4-b]pyridin-3-amine]"
9,185,"Cn1nc(OC2CCS(=O)(=O)CC2)c2ccc(Nc3n[nH]c4cccnc34)cc21 [Example 192, N-[3-(1,1-dioxothian-4-yl)oxy-1-methyl-indazol-6-yl]-1H-pyrazolo[4,3-b]pyridin-3-amine]"
10,313,"Cn1nc(NC(=O)C(F)(F)F)c2ccc(Nc3n[nH]c4cccnc34)cc21 [Example 25, N-(6-((1H-pyrazolo[4,3-b]pyridin-3-yl)amino)-1-methyl-1H-indazol-3-yl)-2,2,2-trifluoroacetamide]"
11,202,Cn1cc2cc(Nc3n[nH]c4nccnc34)ccc2n1 [Example 83]
12,218,"[2H]C([2H])([2H])n1nc(C)c2cc(Nc3n[nH]c4cccnc34)ccc21 [Example 123, N-(3-methyl-1-(methyl-d3)-1H-indazol-5-yl)-1H-pyrazolo[4,3-b]pyridin-3-amine]"
13,78,"Cc1nn(C)c2cc(Nc3n[nH]c4cccnc34)ccc12 [Example 15, N-(1,3-dimethyl-1H-indazol-6-yl)-1H-pyrazolo[4,3-b]pyridin-3-amine]"
14,119,"Cn1nc(Oc2cccc(C#N)n2)c2ccc(Nc3n[nH]c4cccnc34)cc21 [Example 231, 6-((6-((1H-pyrazolo[4,3-b]pyridin-3-yl)amino)-1-methyl-1H-indazol-3-yl)oxy)picolinonitrile]"
15,49,"C=C(C)Cn1nc(C)c2cc(Nc3n[nH]c4nccnc34)ccc21 [Example 128, N-(3-methyl-1-(2-methylallyl)-1H-indazol-5-yl)-1H-pyrazolo[3,4-b]pyrazin-3-amine]"

# Reference: US10526323B2, “Indazole and azaindazole substituted compounds as mGluR4 allosteric potentiators, compositions, and methods of treating neurological dysfunction” (Vanderbilt University, priority 2015, dated 2020)
